Results reported in ChEMBL document CHEMBL4043224, “d-Amino acid mutation of PMI as potent dual peptide inhibitors of p53-MDM2/MDMX interactions” (Bioorg Med Chem Lett, 2017).

Key:
[1] = Cytotoxicity against human U87 cells assessed as reduction in cell viability after 24 hrs by MTT assay; details: U-87 MG
Cathepsin G [2] = molecular target: T1, Cathepsin G (Homo sapiens, UniProt P08311); experiment: Drug metabolism assessed as cathepsin G (unknown origin)-mediated compound hydrolysis after 4 hrs by RP-HPLC analysis; type: ADME
T1 sequence (P08311 whole entry): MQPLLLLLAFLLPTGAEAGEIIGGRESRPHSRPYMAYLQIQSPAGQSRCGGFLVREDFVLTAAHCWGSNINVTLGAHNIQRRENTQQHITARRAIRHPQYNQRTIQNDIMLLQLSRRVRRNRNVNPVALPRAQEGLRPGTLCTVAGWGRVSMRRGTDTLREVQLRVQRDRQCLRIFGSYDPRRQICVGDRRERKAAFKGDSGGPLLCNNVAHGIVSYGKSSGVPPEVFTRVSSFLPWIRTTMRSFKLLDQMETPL

Cathepsin G [3] = molecular target: T1, Cathepsin G; experiment: Drug metabolism assessed as cathepsin G (unknown origin)-mediated compound hydrolysis after 8 hrs by RP-HPLC analysis; type: ADME

Row | Compound | IC50 [1] [µM] | Drug metabolism (Cathepsin G [2]) | Drug metabolism (Cathepsin G [3])
1 | H-TSFAEYWNLLSP-OH | 67.6 | Metabolite_Detected | –
2 | CC(C)C[C@H](NC(=O)[C@H](CC(N)=O)NC(=O)[C@H](Cc1c[nH]c2ccccc12)NC(=O)[C@H](Cc1ccc(O)cc1)NC(=O)[C@H](CCC(=O)O)NC(=O)[C@H](C)NC(=O)[C@H](Cc1ccccc1)NC(=O)[C@H](CO)NC(=O)[C@@H](N)[C@@H](C)O)C(=O)N[C@@H](CC(C)C)C(=O)N[C@@H](C(=O)N1CCC[C@H]1C(=O)O)[C@H](C)O | 45.7 | – | –
3 | COc1ccc(C2=N[C@H](c3ccc(Cl)cc3)[C@H](c3ccc(Cl)cc3)N2C(=O)N2CCNC(=O)C2)c(OC(C)C)c1 | 5.93 | – | –
4 | CC(C)C[C@H](NC(=O)[C@H](CC(N)=O)NC(=O)[C@H](Cc1c[nH]c2ccccc12)NC(=O)[C@H](Cc1ccc(O)cc1)NC(=O)[C@H](CCC(=O)O)NC(=O)[C@H](C)NC(=O)[C@H](Cc1ccccc1)NC(=O)[C@H](CO)NC(=O)[C@@H](N)[C@@H](C)O)C(=O)N[C@@H](CC(C)C)C(=O)N[C@H](Cc1ccc(O)cc1)C(=O)N1CCC[C@H]1C(=O)O | 30.9 | – | –
5 | CC(C)C[C@H](NC(=O)[C@H](CC(N)=O)NC(=O)[C@H](Cc1c[nH]c2ccccc12)NC(=O)[C@H](Cc1ccc(O)cc1)NC(=O)[C@H](CCC(=O)O)NC(=O)[C@H](C)NC(=O)[C@H](Cc1ccccc1)NC(=O)[C@H](CO)NC(=O)[C@@H](N)[C@@H](C)O)C(=O)N[C@@H](CC(C)C)C(=O)N[C@H](Cc1ccccc1)C(=O)N1CCC[C@H]1C(=O)O | 54.3 | – | Metabolite_Detected
6 | CC(C)C[C@H](NC(=O)[C@H](CC(N)=O)NC(=O)[C@H](Cc1c[nH]c2ccccc12)NC(=O)[C@H](Cc1ccc(O)cc1)NC(=O)[C@H](CCC(=O)O)NC(=O)[C@H](C)NC(=O)[C@H](Cc1ccccc1)NC(=O)[C@H](CO)NC(=O)[C@@H](N)[C@@H](C)O)C(=O)N[C@@H](CC(C)C)C(=O)N[C@H](Cc1cnc[nH]1)C(=O)N1CCC[C@H]1C(=O)O | 43.5 | – | –
